pEC50: −log10 of the molar value. Structures can show the parent of a compound that is named as a salt. Where two headings read alike, the source gives them in different places.
What was measured:
S1P1 [1] = target: T1, S1P1 (Homo sapiens, UniProt P21453); experiment: Receptor binding assay, [33P]sphingosine 1-phosphate competition, membranes of CHO cells expressing S1P1
Experimental: (§1) Membranes were prepared from CHO cells expressing S1P1 or S1P3 for use in ligand binding studies. Cells were suspended in 50 mM TRIS, pH 7.4, 2 mM EDTA, 250 mM Sucrose (buffer A) and 1× Complete protease inhibitor cocktail (Roche), and disrupted at 4° C. by N2 decompression using a cell disruption bomb (Parr Instrument). Following centrifugation at 1000 RPM for 10 min at 4° C., the supernatant was diluted (2×) in buffer A and centrifuged again at 19000 RPM for 75 min at 4° C. The pellet was then suspended in 10 mM HEPES, pH 7.4, 1 mM EDTA, 250 mM Sucrose (Buffer B), and 1× Complete EDTA-free protease inhibitor cocktail and homogenized using a potter. Membranes were flash frozen in liquid N2 and stored at −80° C.
(§2) [33P]sphingosine 1-phosphate (3000 Ci/mmol; American Radiolabeled Chemicals, Inc.) was added to test compounds in 20% DMSO by competition. Membranes and WGA SPA beads (GE Healthcare) were added to give a final volume of 100 μl in 96-well plates or 50 μl in 384-well plates with assay concentrations of 30 pM or 15 pM [33P]sphingosine 1-phosphate (respectively for S1P1 or S1P3), 50 mM HEPES, pH 7.5, 5 mM MgCl2, 100 mM NaCl, 0.4% fatty acid-free BSA, 1-5 μg/well of proteins in 96-well plates vs 0.6-1 μg/well of proteins in 384-well plates and 100 μg/well of WGA SPA beads in 96-well plates vs 75 μg/well of WGA SPA beads in 384-well plates. Binding was performed for 60 min at RT on a shaker and bound radioactivity was measured on a PerkinElmer 1450 MicroBeta counter. Triplicate samples were averaged and normalized as percentage of inhibition relative to total binding (only DMSO in well) and non specific binding (1000-fold excess of unlabeled S1P). Binding data were analyzed using the GraphPad Prism program or Genedata software.
(§3) The “potency” or the “activity” of the compounds is determined by the Ki values as evaluated in one of the above described binding assay, 96 or 384 well plates.
Target sequence in this assay (P21453 whole entry, species assumed): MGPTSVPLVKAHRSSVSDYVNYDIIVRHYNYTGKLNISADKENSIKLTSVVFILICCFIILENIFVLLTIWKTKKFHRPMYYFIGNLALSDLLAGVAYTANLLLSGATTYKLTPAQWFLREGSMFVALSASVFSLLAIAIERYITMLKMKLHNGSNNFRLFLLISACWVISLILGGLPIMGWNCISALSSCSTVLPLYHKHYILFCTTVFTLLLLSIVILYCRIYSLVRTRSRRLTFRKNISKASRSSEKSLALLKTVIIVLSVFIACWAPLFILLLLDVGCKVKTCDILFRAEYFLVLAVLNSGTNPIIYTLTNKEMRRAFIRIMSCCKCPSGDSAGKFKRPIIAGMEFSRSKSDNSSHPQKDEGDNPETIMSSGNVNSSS

S1P1 [2] = target: T1, S1P1; experiment: S1P1 internalization assay in S1P1-U2OS cells (cell imaging); format: cell-based; parameters: host or cells: U2OS (human bone osteosarcoma epithelial cells); conditions: U2OS cells expressing S1P1-EGFP, 384-well format
Experimental: Cellular Functional Assays: Internalization of Sphinqosine-1-phosphate Receptor 1 (S1P1) in a Human Cell Line (U2OS) in a 384-Well Format Using a Cell Imaging Analysis.
The S1P1 internalization assay was performed in 384 well plates (Corning 384 black with clear bottom 3712) using S1P1-U2OS cells from BioImage (C039A), a human epithelial cell line (Human Bone Osteosarcoma Epithelial Cells). These cells expressed the human S1P1 Receptor fused to the green fluorescent protein (EGFP). A standard CMV promoter (cytomegalovirus promoter) controls the expression of S1P1-EGFP and continuous expression was maintained by addition of geneticin to the culture medium.
S1P1 Receptor desensitization induced the internalization of the membrane-localized S1P-EGFP fusion protein to endosomes, which can be monitored by cell imaging analysis.
The cells are plated in low serum medium (Dulbecco's Modified Eagle Medium (DMEM) with Glutamax-1 and high glucose, 1% Penicillin/Streptomycin, 1% Fetal Calf Serum (FCS), 0.5 mg/ml Geneticin) overnight.
The next day, S1P1-U2OS cells are incubated in 20 μl serum free medium (DMEM with Glutamax-1 and high glucose, 0.1% of fatty-acid free Bovin Serum Albumin (BSA), 10 mM, N′-2-Hydroxyethylpiperazine-N′-2 ethanesulphonic acid (HEPES) 1M) for 2 hours at 37° C./5% CO2. The cells are then treated with 4 μl compounds/agonists (6×/3% DMSO) for a total volume of 24 μl, and plates are incubated for 1 hour at 37° C./5% CO2.
S1P1-U2OS cells are fixed with 25 μl Paraformaldehyde 8% and stained with Hoechst 33345 dye (1:1000) for 20 minutes.
They were then washed 3 times with Phosphate Buffered Saline (PBS) and plates are sealed. The internalization of the receptor S1P1-EGFP is measured on Cellomics by calculating the “spot count per object” (“object” corresponds to nuclear and “spot” corresponds to S1P1-EGFP receptor). Internalization data were observed thanks to vHCS View and analyzed using Genedata® software.
Target sequence in this assay (P21453 whole entry): as the sequence (P21453 whole entry, species assumed) above

S1P3 = S1P3 (Homo sapiens, UniProt Q99500); experiment: Receptor binding assay, [33P]sphingosine 1-phosphate competition, membranes of CHO cells expressing S1P3
Experimental: as §1, §2, §3

[3] = 384 well plate, read-out: S1P1 Binding Ki [M] (384 well plate)
[4] = 384 well plate, read-out: S1P3 Binding Ki [M] (384 well plate)
[5] = 96 well plate, read-out: S1P1 Binding Ki [M] (96 well plate)
[6] = 96 well plate, read-out: S1P3 Binding Ki [M] (96 well plate)

Chain of S1P3 (Q99500 whole entry, species assumed): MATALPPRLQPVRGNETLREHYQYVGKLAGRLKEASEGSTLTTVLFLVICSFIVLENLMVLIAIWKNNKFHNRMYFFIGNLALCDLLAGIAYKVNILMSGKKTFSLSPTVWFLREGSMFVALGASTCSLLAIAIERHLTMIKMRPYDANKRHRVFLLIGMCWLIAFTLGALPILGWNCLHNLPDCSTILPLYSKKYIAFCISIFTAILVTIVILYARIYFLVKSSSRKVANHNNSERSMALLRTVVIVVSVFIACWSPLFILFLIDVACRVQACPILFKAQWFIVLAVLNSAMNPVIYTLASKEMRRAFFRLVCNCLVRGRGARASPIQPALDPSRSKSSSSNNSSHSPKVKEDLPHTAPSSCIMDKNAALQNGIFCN

| Compound | Ki (S1P1 [1]; [3]) [M] | pEC50 (S1P1 [2]) | Ki (S1P3; [4]) [M] | Ki (S1P1 [1]; [5]) [M] | Ki (S1P3; [6]) [M] |
| --- | --- | --- | --- | --- | --- |
| CCC(C(=O)O)N(C)Cc1ccc(-c2noc(-c3ccc(-c4ccccc4C)c(C(F)(F)F)c3)n2)cc1F (stereo not drawn) [Example 1, 2-[(2-fluoro-4-{5-[2′-methyl-2-(trifluoromethyl)biphenyl-4-yl]-1,2,4-oxadiazol-3-yl}benzyl)(methyl)amino]butanoic acid, hydrochloride salt] | 2.81e-09 | 7.36 | 1.77e-06 | – | – |
| Cc1cc(-c2nc(-c3ccc([C@@H](C)N[C@H](C)C(=O)O)cc3)no2)ccc1-c1ccccc1C(F)F [Example 2, N-[(1R)-1-(4-{5-[2′-(difluoromethyl)-2-methylbiphenyl-4-yl]-1,2,4-oxadiazol-3-yl}phenyl)ethyl]-D-alanine, hydrochloride salt] | 1.42e-09 | 7.99 | > 2e-05 | 2.8e-10 | – |
| COCc1cc(-c2nc(-c3ccc([C@H](C)NCC(=O)O)cc3)no2)ccc1-c1ccccc1C [Example 5, N-[(1S)-1-(4-{5-[2-(methoxymethyl)-2′-methylbiphenyl-4-yl]-1,2,4-oxadiazol-3-yl}phenyl)ethyl]glycine, hydrochloride salt] | 1.27e-09 | 8.36 | 1.23e-06 | – | – |
| Cc1cc(-c2nc(-c3ccc([C@@H](C)NCC(=O)O)cc3)no2)ccc1-c1ccccc1C(F)(F)F [Example 8, N-[(1R)-1-(4-{5-[2-methyl-2′-(trifluoromethyl)biphenyl-4-yl]-1,2,4-oxadiazol-3-yl}phenyl)ethyl]glycine, hydrochloride salt] | 3.68e-09 | 7.57 | 6.38e-06 | 9.13e-10 | > 2e-05 |
| COCc1cc(-c2nc(-c3ccc([C@@H](C)NCC(=O)O)cc3)no2)ccc1-c1ccccc1C [Example 9, N-[(1R)-1-(4-{5-[2-(methoxymethyl)-2′-methylbiphenyl-4-yl]-1,2,4-oxadiazol-3-yl}phenyl)ethyl]glycine, hydrochloride salt] | 1.11e-09 | 8.36 | 4.94e-07 | 1.75e-10 | 7.7e-07 |
| CC[C@@H](N[C@H](C)c1ccc(-c2noc(-c3ccc(-c4ccccc4C)c(C(F)(F)F)c3)n2)cc1)C(=O)O [Example 11, (2R)-2-{[(1R)-1-(4-{5-[2′-methyl-2-(trifluoromethyl)biphenyl-4-yl]-1,2,4-oxadiazol-3-yl}phenyl)ethyl]amino}butanoic acid, hydrochloride salt] | 3.96e-09 | 7.59 | 2.32e-06 | – | – |
| Cc1cc(-c2nc(-c3ccc(C(C)N(C)CC(=O)O)cc3)no2)ccc1-c1ccccc1C(F)(F)F (stereo not drawn) [Example 14, N-methyl-N-[1-(4-{5-[2-methyl-2′-(trifluoromethyl)biphenyl-4-yl]-1,2,4-oxadiazol-3-yl}phenyl)ethyl]glycine, hydrochloride salt] | 4.78e-09 | 7.06 | > 2e-05 | – | – |

Continued by falling Ki (S1P1 [1]; [3]), values first:

| Ki (S1P1 [1]; [3]) [M] | pEC50 (S1P1 [2]) | Ki (S1P3; [4]) [M] | Ki (S1P1 [1]; [5]) [M] | Ki (S1P3; [6]) [M] | Compound |
| --- | --- | --- | --- | --- | --- |
| 5.23e-09 | 6.55 | 1.53e-06 | – | – | Cc1ccccc1-c1ccc(-c2nc(-c3ccc(CN(C)[C@H](C(=O)O)C(C)C)c(F)c3)no2)cc1C(F)(F)F [Example 13, N-(2-fluoro-4-{5-[2′-methyl-2-(trifluoromethyl)biphenyl-4-yl]-1,2,4-oxadiazol-3-yl}benzyl)-N-methylvaline, hydrochloride salt] |
| 2.58e-09 | 7.54 | 6.43e-07 | – | – | Cc1ccccc1-c1ccc(-c2nc(-c3cc(F)cc(CN[C@@H](CC(C)C)C(=O)O)c3)no2)cc1C(F)(F)F [Example 12, N-(3-fluoro-5-{5-[2′-methyl-2-(trifluoromethyl)biphenyl-4-yl]-1,2,4-oxadiazol-3-yl}benzyl)leucine, hydrochloride salt] |
| 2.24e-09 | 7.67 | 1.65e-06 | – | – | Cc1ccccc1-c1ccc(-c2nc(-c3ccc([C@H](C)N[C@@H](C)C(=O)O)cc3)no2)cc1C(F)(F)F (racemic) [Example 26, N-[(1S)-1-(4-{5-[2′-methyl-2-(trifluoromethyl)biphenyl-4-yl]-1,2,4-oxadiazol-3-yl}phenyl)ethyl]-L-alanine, hydrochloride salt and N-[(1R)-1-(4-{5-[2′-methyl-2-(trifluoromethyl)biphenyl-4-yl]-1,2,4-oxadiazol-3-yl}phenyl)ethyl]-D-alanine, hydrochloride salt] |
| 2.21e-09 | 8.11 | 1.33e-06 | – | – | Cc1ccccc1-c1ccc(-c2nc(-c3ccc([C@H](C)N[C@H](C)C(=O)O)cc3)no2)cc1C(F)(F)F (racemic) [Example 27, N-[(1S)-1-(4-{5-[2′-methyl-2-(trifluoromethyl)biphenyl-4-yl]-1,2,4-oxadiazol-3-yl}phenyl)ethyl]-D-alanine, hydrochloride salt and N-[(1R)-1-(4-{5-[2′-methyl-2-(trifluoromethyl)biphenyl-4-yl]-1,2,4-oxadiazol-3-yl}phenyl)ethyl]-L-alanine, hydrochloride salt] |
| 2.18e-09 | 8.12 | > 2e-05 | 9.92e-10 | > 2e-05 | Cc1cc(-c2nc(-c3ccc([C@@H](C)N[C@H](C)C(=O)O)cc3)no2)ccc1-c1ccccc1C(F)(F)F [Example 6, N-[(1R)-1-(4-{5-[2-methyl-2′-(trifluoromethyl)biphenyl-4-yl]-1,2,4-oxadiazol-3-yl}phenyl)ethyl]-D-alanine, hydrochloride salt] |
| 2e-09 | 8.09 | 2.59e-06 | 3.4e-10 | – | COCc1cc(-c2nc(-c3ccc([C@H](C)N[C@H](C)C(=O)O)cc3)no2)ccc1-c1ccccc1C [Example 3, N-[(1S)-1-(4-{5-[2-(methoxymethyl)-2′-methylbiphenyl-4-yl]-1,2,4-oxadiazol-3-yl}phenyl)ethyl]-D-alanine, hydrochloride salt] |
| 1.98e-09 | 7.05 | 5.68e-07 | – | – | COCc1cc(-c2nc(-c3ccc(C(C)N(C)CC(=O)O)cc3)no2)ccc1-c1ccccc1C (stereo not drawn) [Example 15, N-[1-(4-{5-[2-(methoxymethyl)-2′-methylbiphenyl-4-yl]-1,2,4-oxadiazol-3-yl}phenyl)ethyl]-N-methylglycine, hydrochloride salt] |
| 1.64e-09 | 7.75 | 5.24e-06 | 3.7e-10 | > 2e-05 | Cc1cc(-c2nc(-c3ccc([C@@H](C)NCC(=O)O)cc3)no2)ccc1-c1ccccc1C(F)F [Example 7, N-[(1R)-1-(4-{5-[2′-(difluoromethyl)-2-methylbiphenyl-4-yl]-1,2,4-oxadiazol-3-yl}phenyl)ethyl]glycine, hydrochloride salt] |
| 9.18e-10 | 8.70 | 8.63e-07 | 1.45e-10 | 2.2e-06 | COCc1cc(-c2nc(-c3ccc([C@@H](C)N[C@H](C)C(=O)O)cc3)no2)ccc1-c1ccccc1C [Example 4, N-[(1R)-1-(4-{5-[2-(methoxymethyl)-2′-methylbiphenyl-4-yl]-1,2,4-oxadiazol-3-yl}phenyl)ethyl]-D-alanine, hydrochloride salt] |

Source: patent publication US9029405B2, “5-(biphenyl-4-yl)-3-phenyl-1,2,4-oxadiazolyl derivatives as ligands on the sphingosine 1-phosphate(SIP)receptors” (Merck Serono S.A., priority 2010, dated 2015)
